One block for each compound: values may come before it.
Key:
Glutamate NMDA receptor = assay: In vitro ability to inhibit the binding of [3H]glycine to glycine binding site of N-methyl-D-aspartate glutamate receptor in rat synaptic membranes; type: cell membranes, Membrane
Rattus norvegicus [1] = species: Rattus norvegicus; assay: Area under curve in rat plasma; type: ADME, organism-based; details: in vivo
Mus musculus = assay: In vivo neuroprotective activity in the NMDA-induced convulsions in mice after iv administration; type: functional
Rattus norvegicus [2] = assay: In vivo neuroprotective activity in the MCAo model of rats 6 hr after occlusion(post-ischemia) by iv administration at a dose of 0.3 mg/kg; type: functional
Rattus norvegicus [3] = assay: In vivo neuroprotective activity in the MCAo model of rats 6 hr after occlusion(post-ischemia) by iv administration at a dose of 1 mg/kg; type: functional
Rattus norvegicus [4] = assay: In vivo neuroprotective activity as reduction of size of gross brain damage in the MCAo model of rats 6 hr after occlusion(post-ischemia) by iv administration at a dose of 0.3 mg/kg; type: functional
Rattus norvegicus [5] = assay: In vivo neuroprotective activity as reduction of size of gross brain damage in the MCAo model of rats 6 hr after occlusion(post-ischemia) by iv administration at a dose of 1 mg/kg; type: functional
Rattus norvegicus [6] = assay: In vivo neuroprotective activity in the MCAo model of rats 5 min prior to occlusion(pre-ischemia) by iv administration at a dose of 0.01 mg/kg; type: functional
Rattus norvegicus [7] = assay: In vivo neuroprotective activity in the MCAo model of rats 5 min prior to occlusion(pre-ischemia) by iv administration at a dose of 0.1 mg/kg; type: functional
Rattus norvegicus [8] = assay: In vivo neuroprotective activity in the MCAo model of rats 5 min prior to occlusion(pre-ischemia) by iv administration at a dose of 10 mg/kg; type: functional
Rattus norvegicus [9] = assay: In vivo neuroprotective activity in the MCAo model of rats 5 min prior to occlusion(pre-ischemia) by iv administration at a dose of 1 mg/kg; type: functional
Rattus norvegicus [10] = assay: In vivo neuroprotective activity as reduction of size of gross brain damage in the MCAo model of rats 5 min prior to occlusion(pre-ischemia) by iv administration at a dose of 0.01 mg/kg; type: functional
Rattus norvegicus [11] = assay: In vivo neuroprotective activity as reduction of size of gross brain damage in the MCAo model of rats 5 min prior to occlusion(pre-ischemia) by iv administration at a dose of 0.1 mg/kg; type: functional
Rattus norvegicus [12] = assay: In vivo neuroprotective activity as reduction of size of gross brain damage in the MCAo model of rats 5 min prior to occlusion(pre-ischemia) by iv administration at a dose of 10 mg/kg; type: functional
Rattus norvegicus [13] = assay: In vivo neuroprotective activity as reduction of size of gross brain damage in the MCAo model of rats 5 min prior to occlusion(pre-ischemia) by iv administration at a dose of 1 mg/kg; type: functional

SMILES: CC(=O)NCc1ccc(NC(=O)/C=C2\CC(C(=O)O)Nc3cc(Cl)cc(Cl)c32)cc1 (stereo not drawn)
Log Ki (Glutamate NMDA receptor): -8.32

SMILES: CC(C)C(=O)NCc1ccc(NC(=O)/C=C2\CC(C(=O)O)Nc3cc(Cl)cc(Cl)c32)cc1 (stereo not drawn)
Log Ki (Glutamate NMDA receptor): -7.78

SMILES: NC(=O)/C=C/c1ccc(NC(=O)/C=C2\CC(C(=O)O)Nc3cc(Cl)cc(Cl)c32)cc1 (stereo not drawn)
Log Ki (Glutamate NMDA receptor): -8.15

SMILES: O=C(/C=C1\CC(C(=O)O)Nc2cc(Cl)cc(Cl)c21)Nc1ccccc1 (stereo not drawn)
Log Ki (Glutamate NMDA receptor): -8.18

SMILES: Nc1ccc(NC(=O)/C=C2\CC(C(=O)O)Nc3cc(Cl)cc(Cl)c32)cc1 (stereo not drawn)
Log Ki (Glutamate NMDA receptor): -7.76

SMILES: N#C/C=C/c1ccc(NC(=O)/C=C2\CC(C(=O)O)Nc3cc(Cl)cc(Cl)c32)cc1 (stereo not drawn)
Log Ki (Glutamate NMDA receptor): -7.73

SMILES: COCC(=O)Nc1ccc(NC(=O)/C=C2\CC(C(=O)O)Nc3cc(Cl)cc(Cl)c32)cc1 (stereo not drawn)
Log Ki (Glutamate NMDA receptor): -8.18

SMILES: O=C(/C=C/c1c(C(=O)O)[nH]c2cc(Cl)cc(Cl)c12)Nc1ccccc1 [GAVESTINEL]
Log Ki (Glutamate NMDA receptor): -8.52

More lines, main results first:

Log Ki (Glutamate NMDA receptor): -8.18
SMILES: CS(=O)(=O)Nc1ccc(NC(=O)/C=C2\CC(C(=O)O)Nc3cc(Cl)cc(Cl)c32)cc1 (stereo not drawn)

Log Ki (Glutamate NMDA receptor): -8.17
SMILES: NS(=O)(=O)Nc1ccc(NC(=O)/C=C2\CC(C(=O)O)Nc3cc(Cl)cc(Cl)c32)cc1 (stereo not drawn)

Log Ki (Glutamate NMDA receptor): -8.15
SMILES: N#CCc1ccc(NC(=O)/C=C2\CC(C(=O)O)Nc3cc(Cl)cc(Cl)c32)cc1 (stereo not drawn)

Log Ki (Glutamate NMDA receptor): -8.38
SMILES: NC(=O)NCc1ccc(NC(=O)/C=C2\CC(C(=O)O)Nc3cc(Cl)cc(Cl)c32)cc1 (stereo not drawn)

Log Ki (Glutamate NMDA receptor): -8.18
SMILES: NC(=O)Cc1ccc(NC(=O)/C=C2\CC(C(=O)O)Nc3cc(Cl)cc(Cl)c32)cc1 (stereo not drawn)

Log Ki (Glutamate NMDA receptor): -7.72
SMILES: O=C(O)Cc1ccc(NC(=O)/C=C2\CC(C(=O)O)Nc3cc(Cl)cc(Cl)c32)cc1 (stereo not drawn)

AUC (Rattus norvegicus [1]): 3440 ng·h/mL | Log Ki (Glutamate NMDA receptor): -8.79
SMILES: CC(=O)Nc1ccc(NC(=O)/C=C2\CC(C(=O)O)Nc3cc(Cl)cc(Cl)c32)cc1 (single isomer, unassigned; (+))
ED50 (Mus musculus): 0.31 mg/kg | Infarct volume (Rattus norvegicus [2]): 55.6 mm**3 | Infarct volume (Rattus norvegicus [3]): 44.4 mm**3 | Reduction (Rattus norvegicus [4]): 26.3% | Reduction (Rattus norvegicus [5]): 41.2%

AUC (Rattus norvegicus [1]): 19800 ng·h/mL | Log Ki (Glutamate NMDA receptor): -7.3
SMILES: CC(=O)Nc1ccc(NC(=O)/C=C2\CC(C(=O)O)Nc3cc(Cl)cc(Cl)c32)cc1 (single isomer, unassigned; (-))
ED50 (Mus musculus): 1.52 mg/kg | Infarct volume (Rattus norvegicus [2]): 58.7 mm**3 | Infarct volume (Rattus norvegicus [3]): 42.9 mm**3 | Reduction (Rattus norvegicus [4]): 22.2% | Reduction (Rattus norvegicus [5]): 43.2%

AUC (Rattus norvegicus [1]): 11500 ng·h/mL | Log Ki (Glutamate NMDA receptor): -8.52
SMILES: CC(=O)Nc1ccc(NC(=O)/C=C2\CC(C(=O)O)Nc3cc(Cl)cc(Cl)c32)cc1 (stereo in doubt; 3c)
ED50 (Mus musculus): 0.2 mg/kg | Infarct volume (Rattus norvegicus [6]): 64.3 mm3 | Infarct volume (Rattus norvegicus [7]): 47.8 mm3 | Infarct volume (Rattus norvegicus [8]): 39.7 mm3 | Infarct volume (Rattus norvegicus [9]): 41.8 mm3 | Infarct volume (Rattus norvegicus [2]): 36.6 mm**3 | Infarct volume (Rattus norvegicus [3]): 29.9 mm**3 | Reduction (Rattus norvegicus [10]): 12.7% | Reduction (Rattus norvegicus [11]): 35.1% | Reduction (Rattus norvegicus [12]): 46.1% | Reduction (Rattus norvegicus [13]): 43.3% | Reduction (Rattus norvegicus [4]): 50.3% | Reduction (Rattus norvegicus [5]): 59.4%

Source: ChEMBL document CHEMBL1145869, “Enantiomerically pure tetrahydroquinoline derivatives as in vivo potent antagonists of the glycine binding site associated to the NMDA receptor” (Bioorg Med Chem Lett, 2003)
